pIC50: −log10 of the molar value. Calls of active or inactive are those of the source. The rule behind the calls is not given here.
How the values were obtained:
Plasmodium falciparum [1] = assay: Antimalarial activity against chloroquine-sensitive Plasmodium falciparum 3D7 infected in human erythrocytes assessed as reduction in parasite growth incubated for 72 hrs by SYBR green dye fluorimetric assay; type: functional, organism-based; conditions: 3D7, Erythrocyte
[2] = Selectivity index, ratio of CC50 for cytotoxicity against human HepG2 cells to IC50 for antimalarial activity against chloroquine-sensitive Plasmodium falciparum 3D7 infected in human erythrocytes assessed as reduction in parasite growth incubated for 72 hrs by SYBR green dye fluorimetric assay; type: toxicity, cell-based; conditions: read-out: Ratio CC50/IC50
[3] = Cytotoxicity against human HepG2 cells; type: toxicity, cell-based
Plasmodium falciparum [4] = assay: Antimalarial activity against […] infected in human erythrocytes assessed as reduction in parasite growth incubated for 72 hrs by SYBR green dye fluorimetric assay; type: functional, organism-based; conditions: K1, Erythrocyte
[5] = Resistance index, ratio of IC50 for antimalarial activity against […] infected in human erythrocytes to IC50 for antimalarial activity against chloroquine-sensitive Plasmodium falciparum 3D7 infected in erythrocytes; type: functional
Plasmodium falciparum [6] = assay: Induction of morphological changes in asexual blood stage Plasmodium falciparum assessed as appearance of compact structure at 1 uM incubated for 24 hrs by Geimsa-staining based light microscopic analysis; type: functional, organism-based
Plasmodium falciparum [7] = assay: Induction of morphological changes in asexual blood stage Plasmodium falciparum assessed as appearance of healthy rings at 1 uM incubated for 48 to 72 hrs by Geimsa-staining based light microscopic analysis; type: functional, organism-based; conditions: time 48-72 hrs
Plasmodium falciparum [8] = assay: Antimalarial activity against […] infected in human erythrocytes assessed as inhibition of parasitic growth at 5 uM incubated for 72 hrs by SYBR green dye fluorimetric assay relative to control; type: functional, K1, Erythrocyte; design: scale not given: the % may be the effect or the level left
Plasmodium falciparum [9] = assay: Induction of morphological changes in asexual blood stage Plasmodium falciparum assessed as appearance of fragmentation at 1 uM incubated for 24 hrs by Geimsa-staining based light microscopic analysis; type: functional, organism-based
Plasmodium falciparum [10] = assay: Induction of morphological changes in asexual blood stage Plasmodium falciparum assessed as appearance of condensed cytoplasm at 1 uM incubated for 24 hrs by Geimsa-staining based light microscopic analysis; type: functional, organism-based
Plasmodium falciparum [11] = assay: Induction of morphological changes in asexual blood stage Plasmodium falciparum assessed as appearance of schizonts at 1 uM incubated for 48 to 72 hrs by Geimsa-staining based light microscopic analysis; type: functional, organism-based; conditions: time 48-72 hrs
Plasmodium falciparum [12] = assay: Induction of morphological changes in asexual blood stage Plasmodium falciparum assessed as lack of prominent periphery in trophozoites at 1 uM incubated for 24 hrs by Geimsa-staining based light microscopic analysis; type: functional, organism-based
Plasmodium berghei = assay: Antimalarial activity against GFP-luciferase expressing liver stage Plasmodium berghei sporozoites infected in human HepG2 cells assessed as inhibition of parasitic growth by luminescence based analysis; type: functional, organism-based
Plasmodium falciparum [13] = assay: Antimalarial activity against chloroquine-sensitive Plasmodium falciparum 3D7 infected in erythrocytes assessed as inhibition of parasite growth at 0.16 to 0.31 uM incubated for 72 hrs by SYBR green dye fluorimetric assay; type: functional, organism-based; conditions: Erythrocyte, dose 0.16-0.31 µM
Plasmodium falciparum [14] = assay: Antimalarial activity against […] infected in human erythrocytes assessed as inhibition of parasitic growth at 0.16 to 0.63 uM incubated for 72 hrs by SYBR green dye fluorimetric assay relative to control; type: functional, K1, Erythrocyte; design: scale not given: the % may be the effect or the level left; conditions: dose 0.16-0.63 µM

With `Cc1ccc(-c2nc(C(=O)NCc3cn(-c4ccc(F)cc4)nn3)cc3c2[nH]c2ccccc23)cc1` the pIC50 (Plasmodium falciparum [1]) was 5.71, the selectivity ratio at 72 h [2] was 91.4 and the CC50 [3] was 177000 nM.

For `COc1ccc(-c2nc(C(=O)NCc3cn(-c4cccc(C(F)(F)F)c4)nn3)cc3c2[nH]c2ccccc23)cc1`, the pIC50 (Plasmodium falciparum [1]) was 6.35, the pIC50 (Plasmodium falciparum [4]) was 6.19 and the selectivity ratio at 72 h [2] was 444. The “Ratio IC50” value [5] was 1.44 and the CC50 [3] was 200000 nM.

`O=C(NCc1cn(-c2ccc(F)cc2)nn1)c1cc2c([nH]c3ccccc32)c(-c2cccc(Cl)c2)n1` gave a pIC50 (Plasmodium falciparum [1]) of 6.39, a pIC50 (Plasmodium falciparum [4]) of 6.18 and a selectivity ratio at 72 h [2] of 553. For the same compound, the “Ratio IC50” value [5] was 1.61 and the CC50 [3] was 227000 nM.

In the case of `COc1ccc(-n2cc(CNC(=O)c3cc4c([nH]c5ccccc54)c(-c4ccc(Cl)cc4Cl)n3)nn2)cc1`, the pIC50 (Plasmodium falciparum [1]) was 6.04, the Activity (Plasmodium falciparum [6]) was “Active; Irreversible Structural Deformations Observed” and the Activity (Plasmodium falciparum [7]) was “inactive”. The Activity (Plasmodium falciparum [8]) was 95.63%, the Activity (Plasmodium falciparum [9]) was “Active; Irreversible Structural Deformations Observed” and the pIC50 (Plasmodium falciparum [4]) was 6.24. For the same compound, the selectivity ratio at 72 h [2] was 240, the “Ratio IC50” value [5] was 0.62 and the Activity (Plasmodium falciparum [10]) was “Active; Irreversible Structural Deformations Observed”. The CC50 [3] was 221000 nM, the Activity (Plasmodium falciparum [11]) was “inactive” and the Activity (Plasmodium falciparum [12]) was “Active; Irreversible Structural Deformations Observed”.

With `Cc1ccc(-c2nc(C(=O)NCc3cn(-c4ccccc4)nn3)cc3c2[nH]c2ccccc23)cc1` the pIC50 (Plasmodium falciparum [1]) was 6.06, the Activity (Plasmodium falciparum [6]) was “Active; Irreversible Structural Deformations Observed” and the Activity (Plasmodium falciparum [7]) was “inactive”. The Activity (Plasmodium falciparum [8]) was 82.3%, the Activity (Plasmodium falciparum [9]) was “Active; Irreversible Structural Deformations Observed” and the pIC50 (Plasmodium falciparum [4]) was 6.49. For the same compound, the pIC50 (Plasmodium berghei) was 5.32, the selectivity ratio at 72 h [2] was 213 and the “Ratio IC50” value [5] was 0.36. For the same compound, the Activity (Plasmodium falciparum [10]) was “Active; Irreversible Structural Deformations Observed”, the CC50 [3] was 187000 nM and the Activity (Plasmodium falciparum [11]) was “inactive”. For the same compound, the Activity (Plasmodium falciparum [12]) was “Active; Irreversible Structural Deformations Observed”.

`O=C(NCc1cn(-c2ccccc2)nn1)c1cc2c([nH]c3ccccc32)c(-c2ccccc2)n1` gave a pIC50 (Plasmodium falciparum [1]) of 5.53, a selectivity ratio at 72 h [2] of 75.3 and a CC50 [3] of 220000 nM.

For `Cc1ccc(-c2cn(-c3ccc(F)cc3)nn2)cc1`, the pIC50 (Plasmodium falciparum [1]) was 5.44 and the CC50 [3] was 159000 nM.

With `O=C(NCc1cn(-c2cc(C(F)(F)F)cc(C(F)(F)F)c2)nn1)c1cc2c([nH]c3ccccc32)c(-c2ccc(Cl)cc2Cl)n1` the pIC50 (Plasmodium falciparum [1]) was 5.60, the selectivity ratio at 72 h [2] was 120 and the CC50 [3] was 155000 nM.

`O=C(NCc1cn(-c2ccc(F)cc2)nn1)c1cc2c([nH]c3ccccc32)c(-c2ccc(C(F)(F)F)cc2)n1` gave a pIC50 (Plasmodium falciparum [1]) of 6.68, a pIC50 (Plasmodium falciparum [4]) of 6.21 and a selectivity ratio at 72 h [2] of 341. The “Ratio IC50” value [5] was 2.9 and the CC50 [3] was 71700 nM.

`O=C(NCc1cn(-c2ccccc2)nn1)c1cc2c([nH]c3ccccc32)c(-c2ccc(C(F)(F)F)cc2)n1` showed a pIC50 (Plasmodium falciparum [1]) of 6.43, a pIC50 (Plasmodium falciparum [4]) of 6.12 and a selectivity ratio at 72 h [2] of 430. The “Ratio IC50” value [5] was 2.03 and the CC50 [3] was 159000 nM.

Work on `COc1cc(NC(C)CCCN)c2ncccc2c1` (stereo not given) [PRIMAQUINE] yielded a pIC50 (Plasmodium berghei) of 5.60.

Compound `O=C(NCc1cn(-c2ccc(F)cc2)nn1)c1cc2c([nH]c3ccccc32)c(-c2ccc(Cl)cc2Cl)n1` has a pIC50 (Plasmodium falciparum [1]) of 5.74, a selectivity ratio at 72 h [2] of 90.5 and a CC50 [3] of 167000 nM.

With `O=C(NCc1cn(-c2ccc(F)cc2F)nn1)c1cc2c([nH]c3ccccc32)c(-c2ccc(Cl)cc2Cl)n1` the pIC50 (Plasmodium falciparum [1]) was 5.77, the selectivity ratio at 72 h [2] was 84.5 and the CC50 [3] was 144000 nM.

For `O=C(NCc1cn(-c2ccc(C(F)(F)F)cc2)nn1)c1cc2c([nH]c3ccccc32)c(-c2ccc(Cl)cc2Cl)n1`, the pIC50 (Plasmodium falciparum [1]) was 6.01, the Activity (Plasmodium falciparum [6]) was “Active; Irreversible Structural Deformations Observed” and the Activity (Plasmodium falciparum [7]) was “inactive”. The Activity (Plasmodium falciparum [8]) was 95.63%, the Activity (Plasmodium falciparum [9]) was “Active; Irreversible Structural Deformations Observed” and the pIC50 (Plasmodium falciparum [4]) was 6.12. For the same compound, the selectivity ratio at 72 h [2] was 245, the Activity (Plasmodium falciparum [13]) was “Active” and the “Ratio IC50” value [5] was 0.78. For the same compound, the Activity (Plasmodium falciparum [10]) was “Active; Irreversible Structural Deformations Observed”, the CC50 [3] was 240000 nM and the Activity (Plasmodium falciparum [14]) was 14%. For the same compound, the Activity (Plasmodium falciparum [11]) was “inactive” and the Activity (Plasmodium falciparum [12]) was “Active; Irreversible Structural Deformations Observed”.

Compound `Cc1ccc(-n2cc(CNC(=O)c3cc4c([nH]c5ccccc54)c(-c4ccc(Cl)cc4Cl)n3)nn2)cc1` has a pIC50 (Plasmodium falciparum [1]) of 5.60, a selectivity ratio at 72 h [2] of 88.8 and a CC50 [3] of 222000 nM.

Compound `COc1ccc(-c2nc(C(=O)NCc3cn(-c4ccccc4)nn3)cc3c2[nH]c2ccccc23)cc1` has a pIC50 (Plasmodium falciparum [1]) of 5.80, a selectivity ratio at 72 h [2] of 50.6 and a CC50 [3] of 79500 nM.

With `COc1ccc(-n2cc(CNC(=O)c3cc4c([nH]c5ccccc54)c(-c4ccccc4)n3)nn2)cc1` the pIC50 (Plasmodium falciparum [1]) was 5.52, the selectivity ratio at 72 h [2] was 64 and the CC50 [3] was 195000 nM.

Compound `O=C(NCc1cn(-c2cccc(C(F)(F)F)c2)nn1)c1cc2c([nH]c3ccccc32)c(-c2ccc(Cl)cc2Cl)n1` has a pIC50 (Plasmodium falciparum [1]) of 5.89, a selectivity ratio at 72 h [2] of 150 and a CC50 [3] of 195000 nM.

For `CCc1ccc(-n2cc(CNC(=O)c3cc4c([nH]c5ccccc54)c(-c4ccc(C)cc4)n3)nn2)cc1`, the pIC50 (Plasmodium falciparum [1]) was 6.12, the Activity (Plasmodium falciparum [6]) was “Active; Irreversible Structural Deformations Observed” and the Activity (Plasmodium falciparum [7]) was “inactive”. For the same compound, the Activity (Plasmodium falciparum [8]) was 100%, the Activity (Plasmodium falciparum [9]) was “Active; Irreversible Structural Deformations Observed” and the pIC50 (Plasmodium falciparum [4]) was 6.31. The pIC50 (Plasmodium berghei) was 5.12, the selectivity ratio at 72 h [2] was 266 and the “Ratio IC50” value [5] was 0.65. The Activity (Plasmodium falciparum [10]) was “Active; Irreversible Structural Deformations Observed”, the CC50 [3] was 200000 nM and the Activity (Plasmodium falciparum [11]) was “inactive”. For the same compound, the Activity (Plasmodium falciparum [12]) was “Active; Irreversible Structural Deformations Observed”.

`O=C(NCc1cn(-c2ccc(F)cc2)nn1)c1cc2c([nH]c3ccccc32)c(-c2ccccc2)n1` gave a pIC50 (Plasmodium falciparum [1]) of 5.85, a selectivity ratio at 72 h [2] of 148 and a CC50 [3] of 207000 nM.

Work on `COc1ccc(-c2nc(C(=O)NCc3cn(-c4ccc(F)cc4)nn3)cc3c2[nH]c2ccccc23)cc1` yielded a pIC50 (Plasmodium falciparum [1]) of 5.72, a selectivity ratio at 72 h [2] of 85.5 and a CC50 [3] of 163000 nM.

`O=C(NCc1cn(-c2ccccc2)nn1)c1cc2c([nH]c3ccccc32)c(-c2cccc(Cl)c2)n1` gave a pIC50 (Plasmodium falciparum [1]) of 6.10, a pIC50 (Plasmodium falciparum [4]) of 6.09 and a selectivity ratio at 72 h [2] of 271. For the same compound, the “Ratio IC50” value [5] was 1.025 and the CC50 [3] was 217000 nM.

With `O=C(NCc1cn(-c2ccc(OC(F)(F)F)cc2)nn1)c1cc2c([nH]c3ccccc32)c(-c2ccc(Cl)cc2Cl)n1` the pIC50 (Plasmodium falciparum [1]) was 5.81, the selectivity ratio at 72 h [2] was 121 and the CC50 [3] was 187000 nM.

In the case of `COc1cc([C@@H]2c3cc4c(cc3[C@H](O)[C@H]3COC(=O)[C@H]23)OCO4)cc(OC)c1OC` [PODOFILOX], the CC50 [3] was 8700 nM.

`C#CCNC(=O)c1cc2c([nH]c3ccccc32)c(-c2ccc(F)cc2)n1` gave a pIC50 (Plasmodium falciparum [1]) of 5.46 and a CC50 [3] of 167000 nM.

Compound `O=C(NCc1cn(-c2ccccc2)nn1)c1cc2c([nH]c3ccccc32)c(-c2ccc(Cl)cc2Cl)n1` has a pIC50 (Plasmodium falciparum [1]) of 5.69, a selectivity ratio at 72 h [2] of 105 and a CC50 [3] of 214000 nM.

With `O=C(NCc1cn(-c2cccc(C(F)(F)F)c2)nn1)c1cc2c([nH]c3ccccc32)c(-c2ccccc2)n1` the pIC50 (Plasmodium falciparum [1]) was 5.83, the selectivity ratio at 72 h [2] was 136 and the CC50 [3] was 200000 nM.

Source: ChEMBL document CHEMBL6177959, “Design, synthesis and evaluation of novel carboline-triazole hybrids as promising antimalarial agents” (Eur J Med Chem, 2025)
